Experimental findings from US7276502B2, “Thiazoles useful as inhibitors of protein kinases” (Vertex Pharmaceuticals Incorporated, priority 2003, dated 2007) are described below.

Read-outs that look alike come from different tables or passages of the source.

The target of one experiment is T1, ZAP-70 (Homo sapiens, UniProt P43403).
T1 sequence (P43403 1-619): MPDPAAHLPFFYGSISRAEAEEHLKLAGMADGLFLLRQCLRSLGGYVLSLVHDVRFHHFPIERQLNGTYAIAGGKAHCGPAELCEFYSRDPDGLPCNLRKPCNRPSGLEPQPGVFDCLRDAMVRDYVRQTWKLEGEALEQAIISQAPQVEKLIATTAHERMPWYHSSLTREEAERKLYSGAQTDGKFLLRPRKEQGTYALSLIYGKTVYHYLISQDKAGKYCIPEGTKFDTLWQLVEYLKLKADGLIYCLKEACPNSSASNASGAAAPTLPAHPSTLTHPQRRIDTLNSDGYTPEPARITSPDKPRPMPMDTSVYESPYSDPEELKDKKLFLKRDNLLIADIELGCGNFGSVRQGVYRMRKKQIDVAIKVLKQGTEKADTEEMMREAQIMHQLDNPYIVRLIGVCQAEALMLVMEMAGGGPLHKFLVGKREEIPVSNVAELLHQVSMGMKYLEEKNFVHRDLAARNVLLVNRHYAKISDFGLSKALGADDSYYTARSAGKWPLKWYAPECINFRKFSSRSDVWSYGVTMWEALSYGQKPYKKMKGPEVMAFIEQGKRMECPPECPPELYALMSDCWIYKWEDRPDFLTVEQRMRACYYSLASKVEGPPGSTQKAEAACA
In words: ZAP-70 inhibition assay (standard coupled enzyme assay). It counts as biochemical. The settings on record: 100 μM ATP, 20 μM poly-4EY peptide, 30° C., 60 nM ZAP-70. The protocol:
Compounds were screened for their ability to inhibit ZAP-70 using a standard coupled enzyme assay (Fox et al., Protein Sci. 1998, 7, 2249). Assays were carried out in a mixture of 100 mM HEPES (pH 7.5), 10 mM MgCl2, 25 mM NaCl, 2 mM DTT and 3% DMSO. Final substrate concentrations in the assay were 100 μM ATP (Sigma Chemicals) and 20 μM peptide (poly-4EY, Sigma Chemicals). Assays were carried out at 30° C. and 60 nM ZAP-70. Final concentrations of the components of the coupled enzyme system were 2.5 mM phosphoenolpyruvate, 300 μM NADH, 30 μg/ml pyruvate kinase and 10 μg/ml lactate dehydrogenase.
An assay stock buffer solution was prepared containing all of the reagents listed above, with the exception of ZAP-70 and the test compound of interest of the present invention. 55 μl of the stock solution was placed in a 96 well plate followed by addition of 2 μl of DMSO stock containing serial dilutions of the test compound of the present invention (typically starting from a final concentration of 15 μM). The plate was preincubated for 10 minutes at 30° C. and the reaction initiated by addition of 10 μl of enzyme (final concentration 60 nM). Initial reaction rates were determined with a Molecular Devices SpectraMax Plus plate reader over a 15 minute time course. Ki data was calculated from non-linear regression analysis using the Prism software package (GraphPad Prism version 3.0a for Macintosh, GraphPad Software, San Diego Calif., USA).

For a further experiment, the target named is SYK (Homo sapiens, UniProt P43405). The experiment is described as follows: SYK inhibition assay (standard coupled enzyme assay). The class given is biochemical. The protocol: Reactions were carried out in 100 mM HEPES (pH 7.5), 10 mM MgCl2, 25 mM NaCl, 1 mM DTT and 1.5% DMSO. Final substrate concentrations in the assay were 200 μM ATP (Sigma chemical Co.) and 4 μM poly Gly-Tyr peptide (Sigma Chemical Co.). Assays were carried out at 30° C. and 200 nM SYK. Final concentrations of the components of the coupled enzyme system were 2.5 mM phosphoenolpyruvate, 300 μM NADH, 30 μg/ml pyruvate kinase and 10 μg/ml lactate dehydrogenase.
An assay stock buffer solution was prepared containing all of the reagents listed above, with the exception of SYK, DTT, and the test compound of interest of the present invention. 56 μl of the test reaction was placed in a 96 well plate followed by the addition of 1 μl of 2 mM DMSO stock containing the test compound of the present invnetion (final compound concentration 30 μM).

Setting [1] is: coupled enzyme assay, 200 μM ATP, 4 μM poly Gly-Tyr peptide, 30° C., read-out: Ki (SYK).

`Cc1cnc(-c2ccnc(Nc3ccc(N4CCOCC4)cc3)n2)s1` [Example I-91]: the Ki on ZAP-70 and on SYK (setting [1]) was ≤ 5 µM throughout.

Consider `OCc1cnc(-c2ccnc(Nc3ccccc3OCc3ccccc3)n2)s1` [Example I-150], for which the Ki on ZAP-70 and at SYK (setting [1]) was ≤ 5 µM each time.

Consider `CC(=O)c1cccc(Nc2nccc(-c3ncc(C)s3)n2)c1` [Example I-30], for which the inhibitory constant (Ki) at ZAP-70 and on SYK (setting [1]) was ≤ 5 µM each time.

Consider `CNC(=O)c1cnc(-c2ccnc(Nc3cc(C)cc(C)c3)n2)s1` [Example I-115], for which the Ki on ZAP-70 and on SYK (setting [1]) was ≤ 5 µM in each case.

Take `Cc1cc(C)cc(Nc2nccc(-c3ncc(N4CCNCC4)s3)n2)c1` [Example I-93]: the Ki on ZAP-70 and at SYK (setting [1]) was ≤ 5 µM each time.

As to `Cc1cc(C)cc(Nc2nccc(-c3ncc(CO)s3)n2)c1` [Example I-43], the Ki at ZAP-70 and at SYK was ≤ 5 µM in each case.

As for `Cc1cnc(-c2ccnc(Nc3ccc4[nH]c(C(F)(F)F)nc4c3)n2)s1` [Example I-1], the Ki on ZAP-70 and at SYK (setting [1]) was ≤ 5 µM each time.

`Cc1cnc(-c2ccnc(Nc3ccc4[nH]nnc4c3)n2)s1` [Example I-128]: the Ki at ZAP-70 and at SYK (setting [1]) was ≤ 5 µM in each case.

Regarding `Cc1cnc(-c2ccnc(Nc3ccc4sc(C)nc4c3)n2)s1` [Example I-114], the Ki at ZAP-70 and at SYK (setting [1]) was ≤ 5 µM each time.

As to `CC(=O)OCc1cnc(-c2ccnc(Nc3cc(C)cc(C)c3)n2)s1` [Example I-72], the Ki on ZAP-70 and at SYK (setting [1]) was ≤ 5 µM each time.

For `Cc1cnc(-c2ccnc(Nc3ccc(NC(=O)OC(C)(C)C)cc3)n2)s1` [Example I-110], the inhibition constant Ki on ZAP-70 and on SYK (setting [1]) was ≤ 5 µM in each case.

In the case of `COCc1cc(=O)oc2cc(Nc3nccc(-c4ncc(C)s4)n3)ccc12` [Example I-22], the Ki at ZAP-70 and at SYK (setting [1]) was ≤ 5 µM throughout.

Turning to `CCOc1ccc(Nc2nccc(-c3ncc(C)s3)n2)cc1` [Example I-14], the Ki at ZAP-70 and at SYK (setting [1]) was ≤ 5 µM in each case.

Take `Cc1cc(C)cc(Nc2nccc(-c3ncc(CNc4cccnc4)s3)n2)c1` [Example I-124]: the Ki at ZAP-70 and on SYK (setting [1]) was ≤ 5 µM in each case.

In the case of `COc1ccc(Nc2nccc(-c3ncc(C)s3)n2)cc1` [Example I-28], the inhibitory constant (Ki) at ZAP-70 and on SYK (setting [1]) was ≤ 5 µM in each case.

On to `Cc1cnc(-c2ccnc(Nc3cccc(C(N)=O)c3)n2)s1` [Example I-15], for which the Ki on ZAP-70 and on SYK (setting [1]) was ≤ 5 µM throughout.

As for `Cc1cnc(-c2ccnc(Nc3ccc(C(C)(C)C)cc3)n2)s1` [Example I-120], the Ki on ZAP-70 and at SYK (setting [1]) was ≤ 5 µM throughout.

Take `Cc1cc(C)cc(Nc2nccc(-c3ncc(CN4CCC[C@H]4CO)s3)n2)c1` [Example I-86]: the Ki on ZAP-70 and at SYK (setting [1]) was ≤ 5 µM in each case.

Regarding `CCN(CC)Cc1cc(Nc2nccc(-c3ncc(C)s3)n2)ccc1O` [Example I-10], the Ki on ZAP-70 and on SYK (setting [1]) was ≤ 5 µM each time.

On to `CCN1CCN(Cc2cnc(-c3ccnc(Nc4cc(C)cc(C)c4)n3)s2)CC1` [Example I-47], for which the Ki at ZAP-70 and at SYK (setting [1]) was ≤ 5 µM each time.

For `Cc1cnc(-c2ccnc(Nc3cccc(CO)c3)n2)s1` [Example I-111], the Ki on ZAP-70 and on SYK (setting [1]) was ≤ 5 µM each time.

On to `Cc1cc(C)cc(Nc2nccc(-c3nc(C)c(C)s3)n2)c1` [Example I-70], for which the Ki at ZAP-70 and at SYK (setting [1]) was ≤ 5 µM throughout.

As for `Cc1cnc(-c2ccnc(Nc3ccncc3)n2)s1` [Example I-152], the Ki on ZAP-70 and at SYK (setting [1]) was ≤ 5 µM in each case.

For the molecule `COC(=O)c1cc(Nc2nccc(-c3ncc(C)s3)n2)cc(C(=O)OC)c1` [Example I-121], the Ki on ZAP-70 and at SYK (setting [1]) was ≤ 5 µM throughout.

On to `Cc1cnc(-c2ccnc(Nc3ccc(N4CCN(Cc5ccccc5)CC4)cc3)n2)s1` [Example I-7], for which the Ki on ZAP-70 and on SYK (setting [1]) was ≤ 5 µM in each case.

Take `COc1ccc(Nc2nccc(-c3ncc(C)s3)n2)cc1-c1ccccc1` [Example I-16]: the Ki at ZAP-70 and on SYK (setting [1]) was ≤ 5 µM in each case.

As for `Cc1cnc(-c2ccnc(Nc3ccccc3Oc3ccccc3)n2)s1` [Example I-95], the Ki at ZAP-70 and on SYK (setting [1]) was ≤ 5 µM each time.

As for `Cc1cc(C)cc(Nc2nccc(-c3nc4ccccc4s3)n2)c1` [Example I-63], the Ki on ZAP-70 and at SYK (setting [1]) was ≤ 5 µM in each case.

Regarding `Cc1cc(C)cc(Nc2nccc(-c3ncc(CN(C)C)s3)n2)c1` [Example I-44], the Ki at ZAP-70 and on SYK (setting [1]) was ≤ 5 µM in each case.

With `COc1cc(Nc2nccc(-c3ncc(Cl)s3)n2)cc(OC)c1OC` [Example I-143], the Ki on ZAP-70 and on SYK (setting [1]) was ≤ 5 µM in each case.

Take `Cc1cc(C)cc(Nc2nccc(-c3ncc(C)s3)n2)c1` [Example I-41]: the Ki on ZAP-70 and on SYK was ≤ 5 µM each time.

For `Cc1cc(C)cc(Nc2nccc(-c3nc(COC(N)=O)cs3)n2)c1` [Example I-77], the Ki on ZAP-70 and at SYK (setting [1]) was ≤ 5 µM throughout.

As for `Cc1cnc(-c2ccnc(Nc3cccc(CC#N)c3)n2)s1` [Example I-38], the Ki at ZAP-70 and on SYK (setting [1]) was ≤ 5 µM in each case.

In the case of `CSc1ccc(Nc2nccc(-c3ncc(C)s3)n2)cc1` [Example I-131], the Ki on ZAP-70 and on SYK (setting [1]) was ≤ 5 µM in each case.

Take `COc1ccc(Nc2nccc(-c3ncc(C)s3)n2)cc1F` [Example I-5]: the Ki on ZAP-70 and on SYK (setting [1]) was ≤ 5 µM in each case.

In the case of `Cc1cc(C)cc(Nc2nccc(-c3ncc(CN4CCOCC4)s3)n2)c1` [Example I-48], the Ki at ZAP-70 and on SYK (setting [1]) was ≤ 5 µM each time.

As for `Cc1cnc(-c2ccnc(Nc3ccc4c(c3)OCCO4)n2)s1` [Example I-127], the Ki on ZAP-70 and on SYK (setting [1]) was ≤ 5 µM in each case.

For `Cc1cnc(-c2ccnc(Nc3ccc4[nH]ccc4c3)n2)s1` [Example I-31], the Ki at ZAP-70 and at SYK (setting [1]) was ≤ 5 µM in each case.

Turning to `Cc1cnc(-c2ccnc(Nc3c(C)cccc3C)n2)s1` [Example I-100], the Ki on ZAP-70 and at SYK (setting [1]) was ≤ 5 µM in each case.

In the case of `CSc1cccc(Nc2nccc(-c3ncc(C)s3)n2)c1` [Example I-130], the Ki on ZAP-70 and on SYK (setting [1]) was ≤ 5 µM in each case.

`Cc1cnc(-c2ccnc(NC3CCCC3)n2)s1` [Example I-81]: the Ki at ZAP-70 and on SYK (setting [1]) was ≤ 5 µM each time.

For the molecule `Cc1cc(C)cc(Nc2nccc(-c3ncc(CNc4ccncc4)s3)n2)c1` [Example I-125], the Ki at ZAP-70 and on SYK (setting [1]) was ≤ 5 µM throughout.

Take `Cc1cc(C)cc(Nc2nccc(-c3nc(C)c(CCO)s3)n2)c1` [Example I-123]: the Ki on ZAP-70 and at SYK was ≤ 5 µM throughout.

With `Cc1cnc(-c2ccnc(Nc3ccc4cn[nH]c4c3)n2)s1` [Example I-9], the Ki at ZAP-70 and at SYK (setting [1]) was ≤ 5 µM each time.

As for `Cc1cnc(-c2ccnc(Nc3ccc(C)c(Br)c3)n2)s1` [Example I-8], the Ki on ZAP-70 and at SYK (setting [1]) was ≤ 5 µM in each case.

For the molecule `Cc1cnc(-c2ccnc(Nc3ccc4c(C)cc(=O)oc4c3)n2)s1` [Example I-34], the Ki on ZAP-70 and on SYK (setting [1]) was ≤ 5 µM in each case.

With `CCc1cnc(-c2ccnc(Nc3cc(C)cc(C)c3)n2)s1` [Example I-75], the Ki at ZAP-70 and at SYK (setting [1]) was ≤ 5 µM throughout.
